The values below come from paper PMC8001558 (Viruses, 2021).

Like-named read-outs stand apart in the source and are kept apart here.

Data set [1] relates to VA387 P-dimers. On the set-up: method as in ref 31 = [31]. Conditions: MS based data; cited from earlier work.
For data set [2], the system named is GII.4 VA387 (N/N) P-dimers. Format: binding. Conditions: CSP NMR; buffer B: 75 mM sodium phosphate, 100mM NaCl (pH 7.3); 170 µM protein; 298 K; listed as 3′SL.
The test system of data set [3] is MNV07 P-domain. Format: binding.
Data set [4] concerns the target GII.4 Saga (N/N) P-dimers (Norovirus GII.4, UniProt B5BTR7). In words: biochemical. Format: binding.
Data set [5] deals with GII.4 MI001 (N/N) P-dimers (Norovirus Hu/GII.4/MI001/2011/USA, UniProt S5FWF8). In words: biochemical. The note with it: CSP NMR titration; 75 mM sodium phosphate, 100 mM NaCl (pH 7.3); 220 µM protein. Format: binding.
Data set [6] concerns the target GII.10 P-dimers. Set-up: method as in ref 28 = [28]. The note with it: STD NMR titrations stopped at first step of the curve; cited from earlier work.
Data set [7] has as its target GII.4 Saga (P-domain) (Norovirus GII.4, UniProt B5BTR7). The data set can be described thus: Re-evaluation of previously reported STD NMR titrations, one-site binding model. Set-up: species or system human norovirus (HuNoV).
The target of data set [8] is MNV CW1 P-domain (Norovirus, UniProt Q80J94, K296E). In words: CSP NMR binding experiment with MNV P-domain. On the set-up: species or system murine norovirus (MNV). Conditions: MNV P-domains saturated with GCDCA.
Data set [9] deals with P-domain of the VP1 capsid protein of human norovirus GII.4 strain MI001 (human norovirus GII.4 strain MI001).
The target of data set [10] is P-domain of the VP1 capsid protein of human norovirus GII.4 strain VA387 (human norovirus GII.4 strain VA387).
Data set [11] concerns the target P-domain of the VP1 capsid protein of murine norovirus strain MNV07 (murine norovirus strain MNV07).
The mark [12] stands for this setting: 25 mM Tris-d11 pH* 7.40, 300 mM NaCl, 298 K, refit of titration data of ref [2], read-out: KD in mM (reevaluated).

By melting point is commonly meant the temperature, or range, at which the solid turns liquid. On to `C[C@@H]1O[C@@H](O[C@@H]2[C@@H](O[C@H]3O[C@H](CO)[C@H](O)[C@H](O)[C@H]3O)[C@@H](O)[C@@H](CO)O[C@@H]2N=[N+]=[N-])[C@@H](O)[C@H](O)[C@@H]1O` (hydrate or solvate) [B-Tri 3, blood group B trisaccharide (azido group at the anomeric position)], for which the melting point was in the range of 204 to 206 °C.

For `CC(=O)N[C@H]1[C@H]([C@H](O)[C@H](O)CO)O[C@@](O[C@H]2[C@@H](O)[C@@H](CO)O[C@@H](O[C@H]3[C@H](O)[C@@H](O)[C@H](O)O[C@@H]3CO)[C@@H]2O)(C(=O)O)C[C@@H]1O` [3′SL 6, 3′-sialyllactose], the “binding to VA387 P-dimers” value in data set [1] was “neither 3′-sialyllactose nor 6′-sialyllactose bind”. The “binding (tested negative/positive)” value in data set [2] was “no binding”; in data set [3] (STD, buffer B (20 mM sodium acetate, 100 mM NaCl, pH 5.3), with GCDCA, no EDTA, no Ca2+, listed as 3′SL), “no saturation transfer”.

For the compound `CC(=O)N[C@H]1[C@H]([C@H](O)[C@H](O)CO)O[C@@](OC[C@H]2O[C@@H](O[C@H]3[C@H](O)[C@@H](O)[C@H](O)O[C@@H]3CO)[C@H](O)[C@@H](O)[C@H]2O)(C(=O)O)C[C@@H]1O` [6′-sialyllactose, reference compound], in data set [1], the “binding to VA387 P-dimers” value is listed as “neither 3′-sialyllactose nor 6′-sialyllactose bind”.

As a reminder, the Kd is the free concentration of one partner at which half of the binding sites on the other are occupied at equilibrium, for simple one-to-one binding. In the case of `CC(=O)N[C@H]1[C@@H](O[C@H]2[C@@H](O)[C@@H](CO)O[C@@H](O)[C@@H]2O[C@@H]2O[C@@H](C)[C@@H](O)[C@@H](O)[C@@H]2O)O[C@H](CO)[C@H](O)[C@@H]1O` [A-Tri 2, blood group A trisaccharide], the Kd in data set [4] came out at 4.3 ± 0.4 mM.

For the compound `C[C@@H]1O[C@@H](O[C@@H]2[C@@H](O[C@H]3O[C@H](CO)[C@H](O)[C@H](O)[C@H]3O)[C@@H](O)[C@@H](CO)O[C@@H]2N=[N+]=[N-])[C@@H](O)[C@H](O)[C@@H]1O` [B-Tri 3, blood group B trisaccharide (azido group at the anomeric position)], the Kd in data set [5] worked out at 4.3 ± 0.4 mM.

As for `O=C(O)CC(O)(CC(=O)O)C(=O)O` [Citrate, reference compound], the dissociation constants result in data set [6] is “sub millimolar”. The dissociation constant Kd in data set [7] (KD in mM (reevaluated)) worked out at 22.9 ± 2.7 mM.

For `CO[C@@H]1O[C@@H](C)[C@@H](O)[C@@H](O)[C@@H]1O` [Fuc 8, methyl α-L-fucopyranoside], the Kd in [7] (25 mM BisTris-d19 pH* 6.5, 300 mM NaCl, 298 K, refit of titration data of ref [2], read-out: KD in mM (reevaluated)) is 15.1 ± 1.6 mM; in data set [7] (25 mM PBS pH* 5.50, 300 mM NaCl, 298 K, refit of titration data of ref [2], read-out: KD in mM (reevaluated)), 21.9 ± 2.6 mM; in [7] (25 mM PBS pH* 6.50, 300 mM NaCl, 298 K, refit of titration data of ref [2], read-out: KD in mM (reevaluated)), 18.4 ± 2.6 mM; in data set [7] (25 mM PBS pH* 7.40, 300 mM NaCl, 298 K, refit of titration data of ref [2] (Mallagaray et al., Angew Chem Int Ed 2015), read-out: KD in mM (reevaluated)), 15.6 ± 1.9 mM; in data set [7] (25 mM sodium acetate-d3, pH* 4.50, 300 mM NaCl, 298 K, refit of titration data of ref [2], read-out: KD in mM (reevaluated)), 24.5 ± 4.1 mM.

As for `CC(CCC(=O)NCC(=O)O)C1CCC2C3C(O)CC4CC(O)CCC4(C)C3CCC12C` (centres unmarked) [GCDCA, glycochenodeoxycholic acid, reference compound], in data set [3] (80 µM protein, 20 mM sodium acetate buffer (pH 5.3), 250 µM GCDCA, 2 mM 3′SL, 298 K, 600 MHz), the “STD effects (saturation transfer to ligand)” value was “show STD effects”.

For the compound `CO[C@@H]1O[C@H](CO)[C@H](O)[C@H](O)[C@H]1O[C@@H]1O[C@@H](C)[C@@H](O)[C@@H](O)[C@@H]1O` [H-Dis 12, blood group H-disaccharide], in data set [7] (setting [12]), the Kd stood at 26.5 ± 2.7 mM.

Consider `C[C@H](O)[C@@H](O)[C@@H](O)[C@H](O)C=O` [L-fucose], for which the dissociation constants result in data set [6] is recorded as “sub millimolar”.

As for `[Cl-].[Cl-].[Mg+2]` [Mg^2+], in data set [8], the “binding of bivalent metal ions” value is listed as “detected binding”.

As to `[Mn+2]` [Mn^2+], in data set [8], the “binding of bivalent metal ions” value was “detected binding”.

Regarding `CO[C@@H]1O[C@H](CO)[C@H](O)[C@H](O[C@H]2O[C@H](CO)[C@H](O)[C@H](O)[C@H]2O)[C@H]1O[C@@H]1O[C@@H](C)[C@@H](O)[C@@H](O)[C@@H]1O` [b -Methyl glycoside of B-trisaccharide, reference compound], in data set [7] (setting [12]), the Kd came out at 5.2 ± 0.5 mM.

In general, stoichiometry N refers to the number of molecules, sites or subunits per partner or assembly. In data set [9], “P-domain of the VP1 capsid protein of human norovirus GII.4 strain MI001 (domain or fragment)” came in with a stoichiometry N of 2.

Take “P-domain of the VP1 capsid protein of human norovirus GII.4 strain VA387 (domain or fragment)”: the stoichiometry N in [10] is 2.

For the compound “P-domain of the VP1 capsid protein of murine norovirus strain MNV07 (domain or fragment)”, the stoichiometry N in data set [11] stood at 2.
